The test is described as follows: Multicentre, double-blind, placebo-controlled clinical trial of glycaemic and renal effects of linagliptin in patients with type 2 diabetes and albuminuria. In kind it is in vivo, human. Here is the method: A multicentre, double-blind, placebo-controlled clinical trial investigates glycaemic and renal effects of linagliptin in patients with type 2 diabetes, album inuria and estimated GFR ≥30 ml/min/1.73 m2 (with or without renal function impairment).
A total of 360 patients with type 2 diabetes (HbA1c 6.5-10%) and persistent albuminuria (urinary albumin-to-creatinine ratio [UACR] 30-3000 mg/gCr; i.e. micro- or macro-albuminuria) despite stable background (standard-of-care) of single renin-angiotensin system blockade (ARB or ACE inhibitor) are randomised to either linagliptin 5 mg (n=182) or placebo (n=178) for 24 weeks. Primary glycaemic and key secondary renal surrogate endpoints are HbA1c and UACR change from baseline over 24 weeks, respectively.

Experimental findings from patent US20190060320A1, “MEDICAL USE OF PHARMACEUTICAL COMBINATION OR COMPOSITION” (Boehringer Ingelheim International GmbH, priority 2016, published 2019) are described below.

The structures appear in SMILES notation.

As for `CC#CCn1c(N2CCC[C@@H](N)C2)nc2c1c(=O)n(Cc1nc(C)c3ccccc3n1)c(=O)n2C` [linagliptin, 1-[(4-methyl-quinazolin-2-yl)methyl]-3-methyl-7-(2-butyn-1-yl)-8-(3-(R)-amino-piperidin-1-yl)-xanthine], the “placebo-adjusted gMean for time-weighted average of % change in UCAR from baseline” value (over 24 weeks, linagliptin 5 mg vs placebo, 95% CI −15.0, 3.0, NS) is reported as −6.0%. Moreover, where the note is “over 24 weeks, linagliptin 5 mg, 95% CI −16.8, −4.7”, the “gMean for time-weighted average of % change from baseline in UACR” value is recorded as −11.0%. The “difference in the changes from baseline vs. placebo in urinary albumin to creatinine ratio (UACR), subgroup on a background of metformin” value (post hoc exploratory subgroup analysis, linagliptin on metformin background (and CKD3, eGFR 30-60) compared to patients without metformin) is given as “numerically larger difference”. Further, where the note is “week 24, linagliptin 5 mg vs placebo, 95% CI −0.78, −0.43, p<0.0001”, the “placebo-adjusted mean HbA1c change from baseline” value is −0.60%.
